{"source": "patent US10556860B2", "about": "“hTERT modulators and methods of use” (Arizona Board of Regents on Behalf of the University of …, priority 2015, dated 2020)", "key": {"[1]": {"test_system": "G124/125A mutant hTERT G-quadruplex", "assay": "CD melting (Tm), G124/125A mutant", "format": "binding, human", "settings": "2 equiv", "experimental": "(§1) Circular dichroism. Oligomers of WT, G124A, G124/125A, G138/139A and G146A were synthesized and HPSF-purified by MGW Operon, Inc. For CD analysis, oligomers (5 μM) in a buffer containing 10 mM Tris-HCl (pH 7.5) and 140 mM KCl were annealed. For the CD analysis of the complex of oligomers and compounds, oligomers (5 μM) in a buffer containing 10 mM Tris-HCl (pH 7.5) and 5 mM KCl for GTC365 or 1 mM KCl for BRACO-19 were annealed. Oligomers and GTC365 or BRACO-19 were incubated overnight at room temperature. For the full-length of C-rich strand, the oligomer in a buffer of 10 mM Na cacodylate (pH 6.6) was annealed and then incubated with GTC365 overnight. CD analysis was conducted on a Jasco 810 spectropolarimeter (Jasco, Easton, Md.) using a quartz cell with 1 mm of path length, 1 nm of band width, and 1 s of response time for spectra at 20° C. Melting curves for the determination of Tm were obtained by recording ellipticity at 262 nm with increasing temperatures from 25° C. to 95° C. at a rate of 1.6° C./min. Tm of the C-rich strand with GTC365 was obtained from the CD signal at 286 nm within 10-60° C.\n(§2) CD and DMS footprinting analyses were conducted to characterize the binding of GTC365 and BRACO-19 to the 5-12 G-quadruplex. […] To verify the effects of compounds on the thermal stability of the WT and the mutant G-quadruplexes, Tms were determined by CD. […]"}, "[2]": {"test_system": "G138/139A mutant hTERT G-quadruplex", "assay": "CD melting (Tm), G138/139A mutant", "format": "binding, human", "settings": "2 equiv", "experimental": "as §1, §2"}, "[3]": {"test_system": "pGL3 constructs that contain the G124A, G124/125A, G138/139A, and G146A mutations", "assay": "Luciferase assay, somatic mutant constructs in MCF7 cells", "format": "cell-based, human", "settings": "24 h", "experimental": "Luciferase assay. From gDNA extracted from HeLa cells, the hTERT core promoter region, including −350 bp to +12 from the transcription start site, was amplified using a pair of primers, including KpnI and NheI restriction sites, for cloning of pGL3-hTERT with WT promoter sequence. Mutant constructs were generated by PCR-based site-directed mutagenesis. The sequence of each construct was confirmed by sequencing analysis. MCF7 cells in 24-well plate were transfected with 200 ng of pGL3 construct and 5 ng of pRL-TK by Fugene® HD Transfection Reagent and then incubated for 6 h. Media were replaced by fresh ones and the cells were treated with GTC365 or BRACO-19. The same volume of DMSO served as a control. After 24 h of incubation, cells were lysed by passive lysis buffer (Promega) and subjected to dual-luciferase assay (Promega) using an FB12 luminometer. The ratio of firefly to renilla luciferase activity was normalized to the DMSO to obtain the relative luciferase activity.\nThe effect of GTC365 on the somatic mutants in the hTERT promoter region was also examined by transfecting cells with pGL3 constructs that contain the G124A, G124/125A, G138/139A, and G146A mutations."}, "[4]": {"test_system": "BAX/BCL2 mRNA ratio", "assay": "BAX/BCL2 ratio in MCF7 cells", "format": "cell-based, human", "settings": "0.5-1 μM, 72 h, relative to DMSO", "experimental": "FIG. 11 is a graph showingincrease of BAX/BCL2 ratios by GTC365 in mRNA levels. MCF7 cells were treated with GTC365 for 72 h and then subjected to qPCR and immunoblot analysis. The relative ratio of BAX/BCL2 was determined compared with a DMSO-treated sample.\nIndeed at 0.5-1 μM, the BAX/BCL2 ratio was increased by over 2-fold and the capase-3 activity was increased by 47% (FIGS. 11 and 12)."}, "[5]": {"test_system": "hTERT mRNA in melanoma cell line (UACC-903)", "assay": "qPCR of hTERT expression in G124A mutant melanoma cell line", "format": "cell-based, human", "settings": "5 μM, 72 h", "experimental": "(§3) FIGS. 13A-13C are a set of graphs showingselective reduction in viability (A) and hTERT expression (B) in melanoma cells carrying hTERT core promotor mutations. NHM-002 (normal human melanocytes) and a G124A mutant cell line were treated with vehicle, 1.25, 2.5, and 5 μM GTC365 for 72 h. Viability was reduced in hTERT mutant melanoma cells by 50% (left). […] (C) Differential response to GTC365 in WT and promoter mutant cell lines.\n(§4) Next, to assess the selectivity of GTC365 for hTERT-dependent cancer cells relative to normal precursorcells, we compared the effects of a range of […] on viability at 72 h in normal humanmelanocytes (NHM-002) relative to those of UACC-903, aG124A mutant (FIG. 13A). […] To confirm that the reduction in cell viability was aresult of hTERT downregulation, we performed reverse transcription and qPCR to measure the mRNA level of hTERT expression in cells treated with DMSO or 5 μMGTC365. hTERT expression was reduced by 41% in themelanoma cell line after 72 h but was undetectable in normalmelanocytes, even in the absence of GTC365 (FIG. 13B). Finally, tobroadly assess the selectivity of GTC365 for hTERT promotermutant versus WT cells, we conducted a 6-point 72 h MTSproliferation assay to determine EC50s in 14 additional melanoma cell lines with characterized TERT promoter status([…]) (FIG. 13C). […]"}, "[6]": {"test_system": "melanoma cell lines with characterized TERT promoter status (19 cell lines)", "assay": "6-point 72 h MTS proliferation assay, WT versus promoter mutant melanoma cell lines", "format": "cell-based, human", "experimental": "as §3, §4"}}, "data": [{"smiles": "N=C(N)NCCCS(=O)(=O)Nc1ccc(Nc2c3ccccc3nc3cc([N+](=O)[O-])ccc23)cc1", "note": "[GTC365]", "values": [{"measurement": "Tm more increased compared to the WT", "setting": "[1]", "value": "6-7 °C"}, {"measurement": "Tm more increased compared to the WT", "setting": "[2]", "value": "6-7 °C"}, {"measurement": "luciferase activity of the mutants", "setting": "[3]", "value": "decreased luciferase activity of the mutants in a dose-dependent manner"}, {"measurement": "increase of BAX/BCL2 ratio", "setting": "[4]", "value": "over 2 fold"}, {"measurement": "reduction of hTERT expression (mRNA)", "setting": "[5]", "value": 41, "unit": "%"}, {"measurement": "response (EC50) in WT versus mutant melanoma cell lines", "setting": "[6]", "value": "significant differential response"}]}]}
